Where two headings read alike, the source gives them in different places.
How the values were obtained:
[1] = system: EMRSA-15; assay type: in vivo, S. aureus; settings: Group 3: Vancomycin 6 mg/kg alone iv
Method: Methods: 60 female CD-1 mice (22-24 g) were given 1×10^7 cfu of EMRSA-15 as a 100 μl iv bolus.
All mice were terminated at 48 hours for culture of kidney, liver and spleen.
Results: expressed as log cfu per gram of tissue, unless the majority of mice (>5) were cleared (ie organs were culture-negative). N/A=not applicable. (Table 7)

[2] = system: EMRSA-15; assay type: in vivo, S. aureus; settings: for Survivors at 24 h (n = 10): 8×10^7 cfu; for Mortality: 10 mice
Method: Method: 60 female CD-I mice (22-24 g) were given S. aureus (a fresh clinical isolate of EMRSA-15) at a dose of 8×10^7 cfu in a 100 μl iv bolus.
All mice were terminated at 48 hours for culture of kidney, liver and spleen. Mice fatalities prior to the 48 hour cull were not subject to organ colony counts.

[3] = system: EMRSA strains, vancomycin resistant subpopulations, Linzolid resistant strains; assay: Checkerboard MIC / FIC / FIX of vancomycin and Aurograb (Tables 9, 10); assay type: cell-based, S. aureus; settings: for MIC In combination: VAN with Aurograb; for MIC: Staphylococcus aureus
Method: In order to determine the Minimum Inhibitory Concentration (MIC), the Fractional Inhibitory Concentration (FIC) and the FIX (fractional inhibitory index), the following was method was used.
The cells were diluted in Isosensitest Broth (Oxoid, UK) to give a final inoculum of […] cells per mL. […] To this was added exogenous Aurograb in the range 0.3-25 μg/ml in a checkerboard formation. A negative control series was also prepared containing Aurograb formulation buffer alone. Cultures were incubated for 48 hours at 37° C.
The minimum inhibitory concentration (MIC) was defined as the lowest concentration of agent at which no bacterial growth occurred and was determined by spectrophotometric evaluation of the lack of turbidity (growth) in culture.
Fractional inhibitory concentrations (FIC) and FIX values were calculated. Synergistic activity between the two agents was defined as an FIX value ≦0.5. Indifferent activity was defined as a value of 0.5-4, and a value of ≧4 defined antagonism.
The MIC (Alone) column indicates the minimum inhibitory concentration of the agent when administered alone. The MIC (In combination) column indicates the minimum inhibitory concentration of each drug when used in combination.

`CN[C@H](CC(C)C)C(=O)N[C@H]1C(=O)N[C@@H](CC(N)=O)C(=O)N[C@H]2C(=O)N[C@H]3C(=O)N[C@H](C(=O)N[C@H](C(=O)O)c4cc(O)cc(O)c4-c4cc3ccc4O)[C@H](O)c3ccc(c(Cl)c3)Oc3cc2cc(c3O[C@@H]2O[C@H](CO)[C@@H](O)[C@H](O)[C@H]2O[C@H]2C[C@](C)(N)[C@H](O)[C@H](C)O2)Oc2ccc(cc2Cl)[C@H]1O` [Vancomycin, vancomycin] was tested, and the “Liver, number of mice cleared” value ([1]; 10 mice) was “N/A (8 clear)”, the “Spleen, number of mice cleared” value ([1]; 10 mice) was 5 and the “Liver, number of mice cleared” value ([1]; 10 mice, listed as vancomycin) was 8. The “Kidney Log cfu/g of tissue” value ([1]; 48 hours) was 6.53 ± 1.53 Log cfu/g of tissue, the “Survivors at 24 h (n = 10)” value ([2]; Group 2: Vancomycin 4.0 mg/kg alone iv) was 4 and the “Survivors at 24 h (n = 10)” value ([2]; Group 4: Vancomycin 2.0 mg/kg alone iv) was 5. The Mortality ([2]; vancomycin alone 2.0 mg/kg) was 5 deaths, the Mortality ([2]; vancomycin alone 4.0 mg/kg) was 6 deaths and the “MIC In combination” value ([3]; EMRSA strain 1) was 0.03 µg/mL. For the same compound, the “MIC In combination” value ([3]; EMRSA strain 1A) was 1 µg/mL, the “MIC In combination” value ([3]; EMRSA strain 2) was 0.03 µg/mL and the “MIC In combination” value ([3]; EMRSA strain 2A) was 1 µg/mL. The “MIC In combination” value ([3]; EMRSA strain 3) was 0.03 µg/mL, the “MIC In combination” value ([3]; EMRSA strain 4) was 0.03 µg/mL and the “MIC In combination” value ([3]; EMRSA strain 5) was 0.03 µg/mL. For the same compound, the “MIC In combination” value ([3]; EMRSA strain 6) was 0.125 µg/mL, the “MIC In combination” value ([3]; EMRSA strain 7) was 0.03 µg/mL and the “MIC In combination” value ([3]; EMRSA strain 8) was 0.03 µg/mL. For the same compound, the “MIC In combination” value ([3]; EMRSA strain 8A) was 0.03 µg/mL, the “MIC In combination” value ([3]; EMRSA strain 9) was 0.0125 µg/mL and the “MIC In combination” value ([3]; EMRSA strain 10) was 0.03 µg/mL. The “MIC In combination” value ([3]; EMRSA strain 11) was 0.03 µg/mL, the “MIC In combination” value ([3]; EMRSA strain 11A) was 1 µg/mL and the “MIC In combination” value ([3]; EMRSA strain 12) was 0.03 µg/mL. The “MIC In combination” value ([3]; EMRSA strain 12A) was 0.03 µg/mL, the “MIC In combination” value ([3]; EMRSA strain 13) was 0.03 µg/mL and the “MIC In combination” value ([3]; EMRSA strain 14) was 0.03 µg/mL. For the same compound, the “MIC In combination” value ([3]; EMRSA strain 15) was 0.03 µg/mL, the “MIC In combination” value ([3]; EMRSA strain 15A) was 0.03 µg/mL and the “MIC In combination” value ([3]; EMRSA strain 16) was 0.03 µg/mL. The “MIC In combination” value ([3]; EMRSA strain 17) was 1 µg/mL, the “MIC In combination” value ([3]; NARSA 1 (Hiramatsu)) was 2 µg/mL and the “MIC In combination” value ([3]; NARSA 2 (Hiramatsu)) was 0.5 µg/mL. The “MIC In combination” value ([3]; NARSA 12 (France)) was 1 µg/mL, the “MIC In combination” value ([3]; NARSA 17 (New York)) was 2 µg/mL and the “MIC In combination” value ([3]; NARSA 119 (Linezolid R)) was 1 µg/mL. The “MIC In combination” value ([3]; NARSA 120 (Linezolid R)) was 1 µg/mL, the “MIC In combination” value ([3]; NARSA 121 (Linezolid R)) was 1 µg/mL and the MIC ([3]; read-out: MIC Alone, EMRSA strain 1) was 0.5 µg/mL. It also gave an MIC ([3]; read-out: MIC Alone, EMRSA strain 1A) of 8 µg/mL, an MIC ([3]; read-out: MIC Alone, EMRSA strain 2) of 0.5 µg/mL and an MIC ([3]; read-out: MIC Alone, EMRSA strain 2A) of 8 µg/mL. It also gave an MIC ([3]; read-out: MIC Alone, EMRSA strain 3) of 0.5 µg/mL, an MIC ([3]; read-out: MIC Alone, EMRSA strain 4) of 0.5 µg/mL and an MIC ([3]; read-out: MIC Alone, EMRSA strain 5) of 0.5 µg/mL. It also gave an MIC ([3]; read-out: MIC Alone, EMRSA strain 6) of 0.5 µg/mL, an MIC ([3]; read-out: MIC Alone, EMRSA strain 7) of 0.5 µg/mL and an MIC ([3]; read-out: MIC Alone, EMRSA strain 8) of 0.5 µg/mL. It also gave an MIC ([3]; read-out: MIC Alone, EMRSA strain 8A) of 0.5 µg/mL, an MIC ([3]; read-out: MIC Alone, EMRSA strain 9) of 0.5 µg/mL and an MIC ([3]; read-out: MIC Alone, EMRSA strain 10) of 0.5 µg/mL. It also gave an MIC ([3]; read-out: MIC Alone, EMRSA strain 11) of 0.5 µg/mL, an MIC ([3]; read-out: MIC Alone, EMRSA strain 11A) of 4 µg/mL and an MIC ([3]; read-out: MIC Alone, EMRSA strain 12) of 0.5 µg/mL. The MIC ([3]; read-out: MIC Alone, EMRSA strain 12A) was 0.5 µg/mL, the MIC ([3]; read-out: MIC Alone, EMRSA strain 13) was 0.5 µg/mL and the MIC ([3]; read-out: MIC Alone, EMRSA strain 14) was 0.5 µg/mL. It also gave an MIC ([3]; read-out: MIC Alone, EMRSA strain 15) of 0.5 µg/mL, an MIC ([3]; read-out: MIC Alone, EMRSA strain 15A) of 0.5 µg/mL and an MIC ([3]; read-out: MIC Alone, EMRSA strain 16) of 0.5 µg/mL. It also gave an MIC ([3]; read-out: MIC Alone, EMRSA strain 17) of 4 µg/mL, an MIC ([3]; read-out: MIC Alone, NARSA 1 (Hiramatsu)) of 8 µg/mL and an MIC ([3]; read-out: MIC Alone, NARSA 2 (Hiramatsu)) of 3 µg/mL. For the same compound, the MIC ([3]; read-out: MIC Alone, NARSA 12 (France)) was 8 µg/mL, the MIC ([3]; read-out: MIC Alone, NARSA 17 (New York)) was 8 µg/mL and the MIC ([3]; read-out: MIC Alone, NARSA 119 (Linezolid R)) was 4 µg/mL. For the same compound, the MIC ([3]; read-out: MIC Alone, NARSA 120 (Linezolid R)) was 4 µg/mL and the MIC ([3]; read-out: MIC Alone, NARSA 121 (Linezolid R)) was 4 µg/mL.
